Experiment: in vitro
Conditions: human, hek293t cells

Compound | viability at 48 h, 25 µM [%]
COc1ccc(CN(C)C(=O)CCl)cc1 [6-M15, 2-chloro-N-[(4-methoxyphenyl)methyl]-N-methylacetamide] | 0.805
O=C(CCl)NCCc1ccc(Cl)cc1Cl [6-M16, 2-chloro-N-[2-(2,4-dichlorophenyl)ethyl]acetamide] | 1.06
O=CN1CCN(C(=O)CCl)CC1 [6-M17, 4-(2-chloroacetyl)piperazine-1-carbaldehyde] | 2.22
CC(Cl)C(=O)N(CCC#N)c1ccccc1 (stereo not shown) [6-M18, 2-chloro-N-(2-cyanoethyl)-N-phenylpropanamide] | 105
O=C(CCl)N1CCCC1c1ccccc1 (stereo not shown) [6-M19, 2-chloro-1-(2-phenylpyrrolidin-1-yl)ethan-1-one] | 0.923
O=C(CCl)N1CC2CCC(C1)O2 [6-M20, 2-chloro-1-{8-oxa-3-azabicyclo[3.2.1]octan-3-yl}ethan-1-one] | 1.12
CC(c1cccs1)N(C)C(=O)CCl (stereo not shown) [6-M21, 2-chloro-N-methyl-N-[1-(thiophen-2-yl)ethyl]acetamide] | 0.384
CC(c1cccc(NC(=O)c2ccccc2)c1)N(C)C(=O)CCl (stereo not shown) [6-M22, N-{3-[1-(2-chloro-N-methylacetamido)ethyl]phenyl}benzamide] | 0.237
Cc1cc(C=C2CCN(C(=O)C(C)Cl)CC2)no1 (stereo not shown) [6-N03, 2-chloro-1-{4-[(5-methyl-1,2-oxazol-3-yl)methylidene]piperidin-1-yl}propan-1-one] | 104
Cc1ccc(C)c(NC(=O)CN(C)C(=O)CCl)c1 [6-N04, 2-chloro-N-{[(2,5-dimethylphenyl)carbamoyl]methyl}-N-methylacetamide] | 0.906
CC(Cl)C(=O)N1CCC(n2c(=O)[nH]c3ccccc32)CC1 (stereo not shown) [6-N05, 1-[1-(2-chloropropanoyl)piperidin-4-yl]-2,3-dihydro-1H-1,3-benzodiazol-2-one] | 109
O=C(CCl)Nc1ccc2oc3ccccc3c2c1 [6-N06, 2-chloro-N-{8-oxatricyclo[7.4.0.0,2,7]trideca-1(9),2(7),3,5,10,12-hexaen-4-yl}acetamide] | 2.09
CC(Cl)C(=O)N1CCOC(c2ccc(Cl)s2)C1 (stereo not shown) [6-N07, 2-chloro-1-[2-(5-chlorothiophen-2-yl)morpholin-4-yl]propan-1-one] | 111
O=C(CCl)NC1CCN(C(=O)CCc2ccccc2)CC1 [6-N08, 2-chloro-N-[1-(3-phenylpropanoyl)piperidin-4-yl]acetamide] | 1.6
CCc1nc2cc(CNC(=O)C(C)Cl)ccc2n1C1CC1 (stereo not shown) [6-N09, 2-chloro-N-[(1-cyclopropyl-2-ethyl-1H-1,3-benzodiazol-5-yl)methyl]propanamide] | 102
CCN(CC)c1ccc(NC(=O)CCl)cc1 [6-N10, 2-chloro-N-[4-(diethylamino)phenyl]acetamide] | 2.56
CC(Cl)C(=O)N1CCC(Cc2ccncc2)C1 (stereo not shown) [6-N11, 2-chloro-1-{3-[(pyridin-4-yl)methyl]pyrrolidin-1-yl}propan-1-one] | 106
N#CCCSc1ccccc1NC(=O)CCl [6-N12, 2-chloro-N-{2-[(2-cyanoethyl)sulfanyl]phenyl}acetamide] | 1.44
CC(Cl)C(=O)Nc1ccc2c(c1)ncn2-c1ccccc1 (stereo not shown) [6-N13, 2-chloro-N-(1-phenyl-1H-1,3-benzodiazol-5-yl)propanamide] | 105
CC(Cl)C(=O)NCc1nnc2n1-c1ccccc1CC2 (stereo not shown) [6-N14, 2-chloro-N-({4H,5H-[1,2,4]triazolo[4,3-a]quinolin-1-yl}methyl)propanamide] | 110

Compound | viability at 48 h, 25 µM [%]
CC(Cl)C(=O)NCCS(=O)(=O)c1cccs1 (stereo not shown) [6-N15, 2-chloro-N-[2-(thiophene-2-sulfonyl)ethyl]propanamide] | 105
CC(Cl)C(=O)N1CCCN(C)c2cc(F)ccc21 (stereo not shown) [6-N16, 2-chloro-1-(7-fluoro-5-methyl-2,3,4,5-tetrahydro-1H-1,5-benzodiazepin-1-yl)propan-1-one] | 101
Cc1nn(C)c(N2CCCN(C)CC2)c1CNC(=O)C(C)Cl (stereo not shown) [6-N17, 2-chloro-N-{[1,3-dimethyl-5-(4-methyl-1,4-diazepan-1-yl)-1H-pyrazol-4-yl]methyl}propanamide] | 107
CC(Cl)C(=O)N1C2CCC1CC1(C2)CC1(F)F (stereo not shown) [6-N18, 2-chloro-1-{2',2'-difluoro-8-azaspiro[bicyclo[3.2.1]octane-3,1'-cyclopropan]-8-yl}propan-1-one] | 112
CC(Cl)C(=O)N1CCN(Cc2ccc(C(F)(F)F)cc2)C(=O)C1 (stereo not shown) [6-N19, 4-(2-chloropropanoyl)-1-{[4-(trifluoromethyl)phenyl]methyl}piperazin-2-one] | 99.6
CC(Cl)C(=O)N1CCN(c2cc(-c3ccccc3F)n[nH]2)CC1 (stereo not shown) [6-N20, 2-chloro-1-{4-[3-(2-fluorophenyl)-1H-pyrazol-5-yl]piperazin-1-yl}propan-1-one] | 86.2
CC(Cl)C(=O)N1CCCC(c2nc(-c3cccc(F)c3)no2)C1 (stereo not shown) [6-N21, 2-chloro-1-{3-[3-(3-fluorophenyl)-1,2,4-oxadiazol-5-yl]piperidin-1-yl}propan-1-one] | 90.2
CC(Cl)C(=O)N(c1cccc(C#N)c1)C1CCC1 (stereo not shown) [6-N22, 2-chloro-N-(3-cyanophenyl)-N-cyclobutylpropanamide] | 90.1
COc1ccc(S(N)(=O)=O)cc1NC(=O)CCl [6-O03, 2-chloro-N-(2-methoxy-5-sulfamoylphenyl)acetamide] | 0.606
COc1ccc(OC)c(NC(=O)CCl)c1 [6-O04, 2-chloro-N-(2,5-dimethoxyphenyl)acetamide] | 0.314
O=C(CCl)NCCCC1CCCCC1 [6-O05, 2-chloro-N-(3-cyclohexylpropyl)acetamide] | 45.7
CC1CCCCC1OCCNC(=O)CCl (stereo not shown) [6-O06, 2-chloro-N-{2-[(2-methylcyclohexyl)oxy]ethyl}acetamide] | 112
Cc1cccc(N(Cc2ccccc2)C(=O)CCl)c1 [6-O07, N-benzyl-2-chloro-N-(3-methylphenyl)acetamide] | 0.964
O=C(CCl)Nc1ccnn1Cc1ccccc1Cl [6-O08, 2-chloro-N-{1-[(2-chlorophenyl)methyl]-1H-pyrazol-5-yl}acetamide] | 0.422
CCOc1ccc(NC(=O)C(C)Cl)cc1 (stereo not shown) [6-O09, 2-chloro-N-(4-ethoxyphenyl)propanamide] | 89.5
CCC(NC(=O)CCl)c1ccc(Cl)cc1 (stereo not shown) [6-O10, 2-chloro-N-[1-(4-chlorophenyl)propyl]acetamide] | 1.9
O=C(O)C1CCN(C(=O)CCl)CC1 [6-O11, 1-(2-chloroacetyl)piperidine-4-carboxylic acid] | 113
CS(=O)(=O)c1ccc(CNC(=O)CCl)cc1 [6-O12, 2-chloro-N-[(4-methanesulfonylphenyl)methyl]acetamide] | 1.69
CC(Cl)C(=O)Nc1ccc(OCc2ccccc2)cc1 (stereo not shown) [6-O13, N-[4-(benzyloxy)phenyl]-2-chloropropanamide] | 99.7
O=C(CCl)Nc1ccc(S(=O)(=O)c2ccc(F)cc2)cc1 [6-O14, 2-chloro-N-[4-(4-fluorobenzenesulfonyl)phenyl]acetamide] | 0.578
